# According to ChEMBL document CHEMBL3272271, “Folate antagonists. 13. 2,4-Diamino-6-](alpha,alpha,alpha-trifluoro-m-tolyl)thio]quinazoline and related 2,4-diamino-6-[(phenyl- and naphthyl)thio]quinazolines, a unique class of antimetabolites with extraordinary antimalarial and antibacterial effects” (J Med Chem, 1978):
# Activity calls are given as the source filed them. The rule behind the calls is not given here.
# What was measured:
# Plasmodium berghei [1] = experiment: Antimalarial activity against Plasmodium berghei infected in mouse assessed as increase in mean survival days of host at 2.5 mg/kg, sc administered 72 hrs after infection relative to control; type: functional; conditions: route subcutaneous
# Plasmodium berghei [2] = experiment: Antimalarial activity against Plasmodium berghei infected in mouse assessed as increase in mean survival days of host at 5 mg/kg, sc administered 72 hrs after infection relative to control; type: functional; conditions: route subcutaneous
# Plasmodium berghei [3] = experiment: Antimalarial activity against cycloguanil-resistant Plasmodium berghei assessed as drug resistance; type: functional, organism-based
# Plasmodium berghei [4] = experiment: Antimalarial activity against Plasmodium berghei infected in mouse assessed as disease cure from parasite infection at 160 mg/kg, sc administered 72 hrs after infection; type: functional, organism-based; set-up: dose 160 mg/kg
# Plasmodium gallinaceum [5] = experiment: Antimalarial activity against trophozoite-induced Plasmodium gallinaceum infected in white leghorn chicken assessed as increase in mean survival days of host at 100 mg/kg, sc administered 72 hrs after infection relative to control; type: functional; conditions: route subcutaneous
# Plasmodium berghei [6] = experiment: Antimalarial activity against Plasmodium berghei infected in mouse assessed as disease cure from parasite infection at 80 mg/kg, sc administered 72 hrs after infection; type: functional, organism-based; set-up: dose 80 mg/kg
# Plasmodium berghei [7] = experiment: Antimalarial activity against Plasmodium berghei infected in mouse assessed as increase in mean survival days of host at 10 mg/kg, sc administered 72 hrs after infection relative to control; type: functional; conditions: route subcutaneous
# Plasmodium berghei [8] = experiment: Antimalarial activity against Plasmodium berghei infected in mouse assessed as increase in mean survival days of host at 20 mg/kg, sc administered 72 hrs after infection relative to control; type: functional; conditions: route subcutaneous
# Plasmodium berghei [9] = experiment: Antimalarial activity against Plasmodium berghei infected in mouse assessed as increase in mean survival days of host at 1.25 mg/kg, sc administered 72 hrs after infection relative to control; type: functional; conditions: route subcutaneous
# Plasmodium berghei [10] = experiment: Antimalarial activity against Plasmodium berghei infected in mouse assessed as disease cure from parasite infection at 20 mg/kg, sc administered 72 hrs after infection; type: functional, organism-based; set-up: dose 20 mg/kg
# Plasmodium berghei [11] = experiment: Antimalarial activity against Plasmodium berghei infected in mouse assessed as disease cure from parasite infection at 640 mg/kg, sc administered 72 hrs after infection; type: functional, organism-based; set-up: dose 640 mg/kg
# Plasmodium gallinaceum [12] = experiment: Antimalarial activity against trophozoite-induced Plasmodium gallinaceum infected in white leghorn chicken assessed as disease cure from parasite infection at 100 mg/kg, sc administered 72 hrs after infection; type: functional, organism-based; set-up: dose 100 mg/kg
# Plasmodium berghei [13] = experiment: Antimalarial activity against Plasmodium berghei infected in mouse assessed as disease cure from parasite infection at 40 mg/kg, sc administered 72 hrs after infection; type: functional, organism-based; set-up: dose 40 mg/kg
# Plasmodium berghei [14] = experiment: Antimalarial activity against Plasmodium berghei infected in mouse assessed as disease cure from parasite infection at 10 mg/kg, sc administered 72 hrs after infection; type: functional, organism-based; set-up: dose 10 mg/kg
# Plasmodium berghei [15] = experiment: Antimalarial activity against Plasmodium berghei infected in mouse assessed as disease cure from parasite infection at 320 mg/kg, sc administered 72 hrs after infection; type: functional, organism-based; set-up: dose 320 mg/kg
# Plasmodium berghei [16] = experiment: Antimalarial activity against chloroquine-resistant Plasmodium berghei assessed as drug resistance; type: functional, organism-based
# Plasmodium berghei [17] = experiment: Antimalarial activity against Plasmodium berghei infected in mouse assessed as increase in mean survival days of host at 80 mg/kg, sc administered 72 hrs after infection relative to control; type: functional; conditions: route subcutaneous
# Plasmodium falciparum [18] = experiment: Antimalarial activity against pyrimethamine-sensitive Plasmodium falciparum Vietnam Oak Knoll infected in Aotus trivirgatus owl monkey model assessed as cure from parasite infection at 0.6 mg/kg, po qd for 7 days relative to control; type: functional
# Plasmodium falciparum [19] = experiment: Antimalarial activity against chloroquine-susceptible, pyrimethamine-resistant Plasmodium falciparum Malayan Camp infected in Aotus trivirgatus owl monkey model assessed as cure from parasite infection at 0.39 to 5 mg/kg, po qd for 7 days relative to control; type: functional; conditions: dose mg/kg 0.39-5
# Plasmodium berghei [20] = experiment: Ratio of quinine hydrochloride SD90 to compound SD90 for trophozoite-induced Plasmodium berghei infected in mouse assessed as daily dose required to suppression of 90% parasite infection administered with diet for 6 days; type: functional
# Staphylococcus aureus [21] = experiment: Antibacterial activity against Staphylococcus aureus UC-96 by gradient plate test; type: functional
# Plasmodium gallinaceum [22] = experiment: Antimalarial activity against trophozoite-induced Plasmodium gallinaceum infected in white leghorn chicken assessed as disease cure from parasite infection at 160 mg/kg, sc administered 72 hrs after infection; type: functional, organism-based; set-up: dose 160 mg/kg
# Plasmodium gallinaceum [23] = experiment: Antimalarial activity against sporozoite-induced Plasmodium gallinaceum infected in white leghorn chicken assessed as increase in mean survival days of host at 80 mg/kg, sc administered 72 hrs after infection relative to control; type: functional; conditions: route subcutaneous
# Plasmodium gallinaceum [24] = experiment: Antimalarial activity against sporozoite-induced Plasmodium gallinaceum infected in white leghorn chicken assessed as increase in mean survival days of host at 320 mg/kg, sc administered 72 hrs after infection relative to control; type: functional; conditions: route subcutaneous
# Plasmodium gallinaceum [25] = experiment: Antimalarial activity against trophozoite-induced Plasmodium gallinaceum infected in white leghorn chicken assessed as increase in mean survival days of host at 160 mg/kg, sc administered 72 hrs after infection relative to control; type: functional; conditions: route subcutaneous
# Plasmodium gallinaceum [26] = experiment: Antimalarial activity against sporozoite-induced Plasmodium gallinaceum infected in white leghorn chicken assessed as disease cure from parasite infection at 320 mg/kg, sc administered 72 hrs after infection; type: functional, organism-based; set-up: dose 320 mg/kg
# Plasmodium gallinaceum [27] = experiment: Antimalarial activity against sporozoite-induced Plasmodium gallinaceum infected in white leghorn chicken assessed as disease cure from parasite infection at 160 mg/kg, sc administered 72 hrs after infection; type: functional, organism-based; set-up: dose 160 mg/kg
# Plasmodium berghei [28] = experiment: Antimalarial activity against Plasmodium berghei infected in mouse assessed as increase in mean survival days of host at 40 mg/kg, sc administered 72 hrs after infection relative to control; type: functional; conditions: route subcutaneous
# Plasmodium berghei [29] = experiment: Antimalarial activity against trophozoite-induced Plasmodium berghei infected in mouse assessed as daily dose required to suppression of 90% parasite infection administered with diet for 6 days; type: functional
# Enterococcus faecalis = experiment: Antibacterial activity against Streptococcus faecalis MGH-2 by gradient plate test; type: functional
# Plasmodium falciparum [30] = experiment: Antimalarial activity against pyrimethamine-sensitive Plasmodium falciparum Vietnam Oak Knoll infected in Aotus trivirgatus owl monkey model assessed as cure from parasite infection at 0.098 to 1.56 mg/kg, po qd for 7 days relative to control; type: functional; conditions: dose mg/kg 0.098-1.56
# Staphylococcus aureus [31] = experiment: Antibacterial activity against drug-resistant Staphylococcus aureus S18713 by gradient plate test; type: functional
# Shigella sonnei = experiment: Antibacterial activity against Shigella sonnei C-10 by gradient plate test; type: functional
# Plasmodium falciparum [32] = experiment: Antimalarial activity against chloroquine-susceptible, pyrimethamine-resistant Plasmodium falciparum Malayan Camp infected in Aotus trivirgatus owl monkey model assessed as cure from parasite infection at >2.5 mg/kg, po qd for 7 days relative to control; type: functional
# Escherichia coli = experiment: Antibacterial activity against Escherichia coli Vogel by gradient plate test; type: functional
# Pseudomonas aeruginosa = experiment: Antibacterial activity against Pseudomonas aeruginosa 28 by gradient plate test; type: functional
# Plasmodium gallinaceum [33] = experiment: Antimalarial activity against trophozoite-induced Plasmodium gallinaceum infected in white leghorn chicken assessed as disease cure from parasite infection at 320 mg/kg, sc administered 72 hrs after infection; type: functional, organism-based; set-up: dose 320 mg/kg
# Plasmodium gallinaceum [34] = experiment: Antimalarial activity against sporozoite-induced Plasmodium gallinaceum infected in white leghorn chicken assessed as disease cure from parasite infection at 80 mg/kg, sc administered 72 hrs after infection; type: functional, organism-based; set-up: dose 80 mg/kg
# Plasmodium gallinaceum [35] = experiment: Antimalarial activity against trophozoite-induced Plasmodium gallinaceum infected in white leghorn chicken assessed as increase in mean survival days of host at 80 mg/kg, sc administered 72 hrs after infection relative to control; type: functional; conditions: route subcutaneous
compound,measurement,setting,value
Nc1nc(N)c2cc(Sc3ccc(Cl)c(Cl)c3)ccc2n1,MST,Plasmodium berghei [1],5.9 days
same,MST,Plasmodium berghei [2],8.5 days
same,Activity,Plasmodium berghei [3],Active
same,Activity,Plasmodium berghei [4],Active
same,MST,Plasmodium gallinaceum [5],20.8 days
same,Activity,Plasmodium berghei [6],Active
same,MST,Plasmodium berghei [7],11.7 days
same,MST,Plasmodium berghei [8],15.9 days
same,MST,Plasmodium berghei [9],0.9 days
same,Activity,Plasmodium berghei [10],Active
same,Activity,Plasmodium berghei [11],Active
same,Activity,Plasmodium gallinaceum [12],Active
same,Activity,Plasmodium berghei [13],Active
same,Activity,Plasmodium berghei [14],Active
same,Activity,Plasmodium berghei [15],Active
same,Activity,Plasmodium berghei [16],inactive
Nc1nc(N)c2cc(Sc3ccc(Cl)cc3)ccc2n1,MST,Plasmodium berghei [17],25.8 days
same,Activity,Plasmodium falciparum [18],>50%
same,MST,Plasmodium berghei [1],2.5 days
same,MST,Plasmodium berghei [2],6 days
same,Activity,Plasmodium berghei [3],Active
same,Activity,Plasmodium berghei [4],Active
same,Activity,Plasmodium falciparum [19],>50%
same,Ratio,Plasmodium berghei [20],340
same,MIC,Staphylococcus aureus [21],< 0.25 µg/mL
same,Activity,Plasmodium berghei [6],Active
same,Activity,Plasmodium gallinaceum [22],Active
same,MST,Plasmodium gallinaceum [23],17.9 days
same,MST,Plasmodium berghei [7],9.2 days
same,MST,Plasmodium berghei [8],9.2 days
same,MST,Plasmodium gallinaceum [24],1.9 days
same,MST,Plasmodium gallinaceum [25],22.2 days
same,Activity,Plasmodium gallinaceum [26],Active
same,MST,Plasmodium berghei [9],1.7 days
same,Activity,Plasmodium gallinaceum [27],Active
same,MST,Plasmodium berghei [28],13.1 days
same,SD90,Plasmodium berghei [29],0.22 mg/kg/day
same,MIC,Enterococcus faecalis,< 0.25 µg/mL
same,Activity,Plasmodium falciparum [30],>50%
same,Activity,Plasmodium berghei [11],Active
same,MIC,Staphylococcus aureus [31],< 0.25 µg/mL
same,MIC,Shigella sonnei,5 µg/mL
same,Activity,Plasmodium berghei [13],Active
same,Activity,Plasmodium falciparum [32],>50%
same,Activity,Plasmodium berghei [15],Active
same,MIC,Escherichia coli,1 µg/mL
same,MIC,Pseudomonas aeruginosa,> 25 µg/mL
same,Activity,Plasmodium gallinaceum [33],Active
same,Activity,Plasmodium gallinaceum [34],Active
same,Activity,Plasmodium berghei [16],inactive
same,MST,Plasmodium gallinaceum [35],16.7 days
